Common to all, as to test: NCI tumour cell line growth inhibition, 48 h
For test [1], the system named is SNB-78 CNS.
In test [2] the test system is DLD-1 colon.
Test [3] concerns XF 498 CNS.
Test [4] relates to DMS 273 small cell lung.
Test [5] relates to LXFL 529 NSCLC.
The test system of test [6] is M19-MEL melanoma.
Test [7] concerns RXF-631 renal.
For test [8], the system named is MCF7 breast.
For test [9], the system named is MDA-N.
Test [10] relates to P388/ADR leukemia.
Test [11] concerns P388 leukemia.

“And” between values parts separate entries of the source, which are not always exact repeats. Equal values may be shown once.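 The compound was tested at five concentrations on cells cultured in 96-well plates, with a 48-hour exposure period. GI50 marks 50% less growth. TGI: concentration producing complete growth inhibition.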

With `Nc1ccc(C(=O)N/C(=C\c2ccc3c(c2)OCO3)c2nc3ccc4c(c3[nH]2)C(=O)c2ccccc2C4=O)cc1`, the TGI in test [1] is more than 100 µM; in test [2] it was 45.2 µM; in test [3], more than 100 µM; in test [4] it was more than 100 µM; in test [5], more than 100 µM; in [6] it was more than 100 µM. In test [7], this compound returned a TGI of more than 100 µM.
Turning to `CCOc1c(Cc2ccccc2)c(=O)n2c3ccccc3n3c(=O)n(C)c(=O)c1c23`, the TGI in [1], in [2], in test [3], in [4], in test [5] and in test [6] was more than 100 µM throughout. For the same compound, the TGI in [7] was more than 100 µM.
In the case of `O=C1NC(=Nc2ccccc2Cl)SC1C(=O)Nc1ccc([N+](=O)[O-])cc1[N+](=O)[O-]` (stereo not given), the TGI in test [1], in test [2], in [3], in [4], in [5] and in [6] was more than 100 µM each time. For the same compound, the TGI in test [7] was more than 100 µM.
In the case of `COc1cccc(C2N3CCCCC3[C@@H]3c4[nH]c5ccccc5c4CCN23)c1OC` (stereo not given in full), the TGI came to 29.8 µM in [1]; 31.2 µM in test [2]; 28.7 µM in test [3]; 29.7 µM in test [4]; 28.5 µM in test [5]; 29.4 µM in [6]. The compound also returned a TGI in [7] of 32.4 µM.
In the case of `CC(C)C(NCc1c2ccccc2nc2ccccc12)C(=O)O` (stereo not given), the TGI is more than 100 µM in test [2]; 62.4 µM in test [3]; more than 100 µM in test [4]; more than 100 µM in test [5]; more than 100 µM in test [6]; 97.3 µM in [7].
Turning to `O=C1/C(=C/c2ccc(Cl)cc2)COc2ccc(Br)cc21`, the TGI in test [1], in test [2], in [3], in [4], in [5] and in [6] was more than 100 µM each time. The compound also displayed a TGI in [7] of more than 100 µM.
`O=[N+]([O-])C1(CO)COC2(OC1)c1ccccc1-c1ccccc12`: the TGI in [1] was more than 100 µM; in test [2], more than 89.1 µM; in test [8], more than 95.3 µM; in test [4] it was more than 100 µM; in test [5] it was more than 100 µM; in test [6], more than 100 µM. Moreover, the TGI in [9] and in test [7] was more than 100 µM in each case.
Take `CC(C)S(=O)(=O)ON1C(=O)c2ccc([N+](=O)[O-])cc2C1=O`: the TGI in test [1], in [2], in test [3], in test [4], in test [5] and in [6] was more than 100 µM in each case. The compound further showed a TGI in test [7] of more than 100 µM.
Consider `CCCCCCCC(=O)O[C@H]1[C@H]2[C@@H](CC1(C)C)C(=O)[C@]13O[C@H]1C(=O)[C@]1(CO1)[C@]23C`, for which the GI50 was 12.1 µM in [1]; 2.71 µM in [3]; 4.99 µM in test [8]; 10.5 µM in test [4]; 2.09 µM in [6]. Besides, the TGI is 26.6 µM and 13.5 µM in [1]; 3.6 µM and 7.46 µM in [2]; 1.65 µM in test [10]; 5.59 µM and 6.23 µM in test [3]; 19.4 µM and 10.5 µM in test [8]; 5.19 µM in [11]. In addition, the TGI in test [4] was 22.9 µM and 15.3 µM; in [5], 3.03 µM; in test [6], 4.91 µM and 8.92 µM; in test [9] it was 26.5 µM; in test [7], 39 µM.
As for `C/C(CC(=O)Nc1cc(Cl)c(Cl)cc1Cl)=N\NS(=O)(=O)c1ccc(C)cc1`, the TGI in [1] is 93.7 µM; in test [2] it was more than 100 µM; in test [3] it was 77.9 µM; in test [5], more than 100 µM; in test [6] it was 94.4 µM; in test [7], more than 100 µM.
Turning to `O=C1CCC(=O)C(C(=O)CCC(=O)Nc2ccc(Cl)cc2)C1` (stereo not given), the TGI in test [1], in [2], in [3], in test [4], in test [5] and in [7] was more than 100 µM each time.
`CC1(C)CC(=O)C=C(NC(=O)c2ccccc2)C1`: the TGI in test [1], in [2], in test [3], in [4], in [5] and in test [6] was more than 100 µM throughout. This compound also yielded a TGI in test [7] of more than 100 µM.
For the compound `CCC1C(=O)OCc2c1cc1n(c2=O)Cc2ccccc2-1` (stereo not given), the TGI in test [1], in [2], in [3], in test [4], in [5] and in [6] was more than 100 µM each time. The TGI in test [7] is more than 100 µM.
As for `BrCC[N+]12CCCN1CCC2`, the TGI in [1] came to 37.5 µM; in [2], 14.1 µM; in test [4], 37.1 µM; in [5], 8.59 µM; in [6], 34.1 µM; in test [9] it was 30.2 µM. The compound further returned a TGI in [7] of 46.4 µM.

Values taken from PubChem BioAssay (NCI).
